Data reported in EPA's ToxValDB 9.5.
In brackets after ≈: the same amount, converted by molar mass. Several values for one entry are separate records, joined by “and”; a condition that tells them apart may be missing. Identical values can stand only once.

How the values were obtained:
Mus musculus [1] = conditions: chronic; inhalation; M/F; B6C3F1; suppurative inflammation of the nose
Rattus norvegicus [2] = conditions: subchronic, duration: 13 weeks
Rattus norvegicus [3] = conditions: M/F
Rattus norvegicus [4] = system: Rattus norvegicus
Oryctolagus sp. = conditions: New Zealand; for NOAEL: duration: 13 days, inhalation
Rattus norvegicus [5] = system: Rattus norvegicus; remark: listed apart in the source
Rattus norvegicus [6] = conditions: oral, M/F
Rattus norvegicus [7] = conditions: oral
Rattus norvegicus [8] = conditions: Hershberger; duration: 10 days; oral; gavage; Sprague-Dawley; inactive + Negative + Negative + neither + negative
Rattus norvegicus [9] = conditions: short-term, duration: 28 days, oral, gavage, Sprague-Dawley, Clinical Observation: Locomotor activity decrease, Salivation Soiled perineal region + Body Weight Changes: decrease + Urinalysis: Volume …
Canidae = conditions: immunotoxicology; duration: 14 months; oral; capsule; Beagle; Re-emergence of haemolytic anaemia
Rattus norvegicus [10] = conditions: repeat dose other; oral
Mus musculus [11] = conditions: duration: 10 days, inhalation, CF1
Mus musculus [12] = conditions: developmental; duration: 9 days; inhalation; whole body; M/F; CF1; developmental
Homo sapiens = conditions: clinical; duration: 14 days; oral; M/F; endocrine
[13] = chronic, duration: 2 years, diet, reduced body weight (males), inflammatory foci in kidneys of females
[14] = reproduction developmental, Long-Evans, Micromelia, ectromelia, curved femur and microfetalis
[15] = subchronic, mortality and body weight loss
[16] = chronic, diet, liver cell polymorphism

ClC1=C(Cl)C(Cl)(Cl)C(Cl)=C1Cl [Hexachlorocyclopentadiene]
LOAEL (Mus musculus [1]): 2.23 mg/m3
NOAEL (Mus musculus [1]): 0.56 mg/m3
NOAEL (Rattus norvegicus [2]; inhalation, intermittent, Nasal cavity: Squamous metaplasia): 1.67 mg/m3
NOAEL (Rattus norvegicus [2]; oral, Forestomach: Lesions): 7.1 mg/kg-day
LOAEL (Rattus norvegicus [3]; chronic, duration: 2 years, inhalation, Fischer 344, respiratory): 0.112 mg/m3
NOAEL (Rattus norvegicus [3]; chronic, duration: 14 weeks, inhalation, Sprague-Dawley, respiratory): 2.23 mg/m3
NOAEL (Rattus norvegicus [3]; subchronic, duration: 13 weeks, oral, gavage, Fischer 344, renal): 19 mg/kg-day

N#CCCCCC#N [Hexanedinitrile]
NOAEL (Rattus norvegicus [4]; subchronic, duration: 13 weeks, inhalation, whole body, M/F, Crl:CD(SD), Hematologic): 31 mg/m3
LD50 (Oryctolagus sp.; acute, dermal, occlusive): 2130 mg/kg
LC50 (Rattus norvegicus [5]; acute, inhalation, Sprague-Dawley): 1.71 µg/mL (≈ 15.8 µM)
LD50 (Rattus norvegicus [5]; acute, oral, gavage, Crl:CD(SD)): 138 mg/kg and 301 mg/kg
NOAEL (Rattus norvegicus [5]; developmental, duration: 14 days, oral, gavage, Sprague-Dawley): > 80 mg/kg-day

CC1(C)C(C=C(Cl)Cl)C1C(=O)OC(C#N)c1ccc(F)c(Oc2ccccc2)c1 (stereo not drawn) [Cyfluthrin]
LEL (Rattus norvegicus [6]; [13]): 7.5 mg/kg-day
NOEL (Rattus norvegicus [6]; [13]): 2.5 mg/kg-day
NOEL (Rattus norvegicus [7]; chronic, duration: 2 years, diet, M/F, Wistar, Depressed bodyweight gain): 2 mg/kg-day
NOEL (Rattus norvegicus [7]; dietary / carcinogenicity, duration: 2 years, feed, M/F, Wistar, Depressed bodyweight gain): 2 mg/kg-day
NOEL (Rattus norvegicus [8]): 20 mg/kg-day

CCCSc1ccc2nc(NC(=O)OC)[nH]c2c1 [Albendazole]
LOEL (Rattus norvegicus [7]; [14]): 10 mg/kg-day
NOEL (Rattus norvegicus [7]; [14]): 5 mg/kg-day

c1ccc2c(c1)oc1ccccc12 [Dibenzofuran]
LOAEL (Rattus norvegicus [4]; chronic, duration: 200 days, oral, diet, F, albino, Whole Body Effects): 12.3 mg/kg-day
NOEL (Rattus norvegicus [9]; F): 40 mg/kg-day
NOAEL (Rattus norvegicus [9]; M/F): 40 mg/kg-day

c1ccc([C@H]2CN3CCSC3=N2)cc1 [Levamisole]
LOEL (Canidae): 1.25 mg/kg-day

Cc1c(N)cccc1N [2,6-Toluenediamine]
NOAEL (Rattus norvegicus [4]; chronic, duration: 2 years, oral, diet, M, Fischer 344, Whole Body Effects): 25 mg/kg-day
NOAEL (Rattus norvegicus [4]; chronic, duration: 91 days, oral, diet, M, Fischer 344, Whole Body Effects): 62 mg/kg-day

FC(F)(Cl)Cl [Dichlorodifluoromethane]
LOAEL (Rattus norvegicus [6]; chronic, reduced body weight): 150 mg/kg-day
NOAEL (Rattus norvegicus [6]; chronic, reduced body weight): 15 mg/kg-day
NOAEL (Rattus norvegicus [4]; chronic, duration: 2 years, oral, gavage, M/F, Crl:CD(SD), Whole Body Effects): 15 mg/kg-day

ClCCCCl [1,3-Dichloropropane]
NOAEL (Rattus norvegicus [4]; subchronic, duration: 90 days, oral, gavage, M/F, Sprague-Dawley, Hepatic, Urinary): 50 mg/kg-day

[Cl][Sb]([Cl])[Cl] [Antimony trichloride]
LOAEL (Rattus norvegicus [4]; chronic, duration: 2 years, oral, drinking water, M/F, Long-Evans, Whole Body Effects): 0.35 mg/kg-day

CC(=O)c1ccccc1 [Acetophenone]
NOAEL (Rattus norvegicus [6]; subchronic, general toxicity): 423 mg/kg-day
NOAEL (Rattus norvegicus [4]; reproduction developmental, oral, gavage, M/F, Sprague-Dawley): 225 mg/kg-day

CCOC(C)=O [Ethyl acetate]
LOAEL (Rattus norvegicus [6]; [15]): 3600 mg/kg-day
NOEL (Rattus norvegicus [6]; [15]): 900 mg/kg-day
LOAEL (Rattus norvegicus [10]): 360 mg/kg-day
NOAEL (Rattus norvegicus [10]): 90 mg/kg-day

O=[Se](=O)([O-])[O-] [Selenate]
LOAEL (Rattus norvegicus [10]): 0.33 mg/kg-day
NOAEL (Rattus norvegicus [10]): 0.2 mg/kg-day

O=[N+]([O-])c1cc(C(F)(F)F)ccc1Cl [4-Chloro-3-nitrobenzotrifluoride]
LOAEL (Rattus norvegicus [4]; short-term, duration: 28 days, oral, gavage, M, Sprague-Dawley): 1 mg/kg-day

Clc1ccc2oc3c(Cl)c(Cl)c(Cl)c(Cl)c3c2c1 [Dibenzofuran, 1,2,3,4,8-pentachloro-]
NOAEL (Rattus norvegicus [10]): 0.048 mg/kg-day

C=CCl [Vinyl chloride]
LOAEL (Rattus norvegicus [6]; [16]): 1.3 mg/kg-day
NOAEL (Rattus norvegicus [6]; [16]): 0.13 mg/kg-day
NOAEL (Oryctolagus sp.; developmental): 6390 mg/m3
NOAEL (Oryctolagus sp.; reproduction developmental, F): < 1280 mg/m3
NOAEL (Mus musculus [11]; developmental): 1280 mg/m3
NOAEL (Mus musculus [11]; reproduction developmental, F): 128 mg/m3
NOAEL (Rattus norvegicus [5]; developmental, duration: 10 days, inhalation, Sprague-Dawley): 6390 mg/m3
NOAEL (Rattus norvegicus [5]; reproduction developmental, duration: 10 days, inhalation, F, Sprague-Dawley): < 1280 mg/m3
LOAEL (Rattus norvegicus [10]): 1.7 mg/kg-day
NOAEL (Rattus norvegicus [10]): 0.17 mg/kg-day
NOAEL (Mus musculus [12]): 128 mg/m3
NOAEL (Rattus norvegicus [3]; chronic, duration: 149 weeks, oral, diet, Wistar, hepatic): 0.17 mg/kg-day

[I-].[Na+] [Sodium iodide]
NOAEL (Homo sapiens): 0.01 mg/kg-day
